Data reported in patent publication US11078202B2, “β-lactamase inhibitor and use thereof” (priority 2018, dated 2021).
Where a name gives a salt, the structure may show the parent alone.

Columns and labels:
Assay type in all cases: cell-based
[1] = system: Acinetobacter baumannii XNWB 0007; assay: MIC assay of test compounds combined with ceftazidime (8 μg/mL); details: ceftazidime 8 μg/mL fixed
Description: (§1) The bacterial strains used for the minimum inhibitory concentration (MIC) test were frozen in a −80° C. ULT freezer and thawed 2 days before use. A small amount of frozen bacterial strains were scraped using a sterile inoculating loop, streaked onto a TSA solid culture dish for inoculation, and then cultured for 20-24 h at 35±2° C. in a normal atmospheric environment. 5-10 colonies with similar morphology were picked from the culture dish using a sterile inoculating loop and then re-streaked onto a suitable solid culture dish. Then the dish was placed into a normal incubator for culture for 20-24 h at 35±2° C. 5-10 single bacterial colonies were picked from the solid culture dish, resuspended in 500 μL of 0.9% NaCl, and adjusted to an OD600 of 0.1-0.15 with a spectrophotometer. The bacteria were then diluted 300-fold with 1.1×CAMHB. […] Dilution of test compounds: […] 2 μL of each compound in the dilution master plate of the test compounds was transferred to the corresponding well of the assay plates. In the mean time, 2 μL of 100% DMSO was transferred to the compound-free wells (GC and SC wells). (1) 8 μL of imipenem in the additive plate of imipenem was transferred to the corresponding wells of the assay plates; (2) 8 μL of ceftazidime in the additive plate of ceftazidime was transferred to the corresponding wells of the assay plates; (3) 8 μL of ampicillin in the additive plate of ampicillin was transferred to the corresponding wells of the assay plates. 90 μL of corresponding bacterial inocula were added to wells (except for SC wells) of the assay plates. After addition, the 6 assay plates were covered by sterile covers. The mixtures in the assay plates were centrifuged by a centrifuge at 1000 rpm for 30 s, and mixed uniformly by oscillating with a microplate oscillator at 800 rpm for 1 min, and then cultured in a common incubator for 16-20 h at 35±2° C. The minimum inhibitory concentration of each compound was recorded by reference to guidelines from the Clinical and Laboratory Standards Institute. […] The effect of the test compounds in combination with imipenem, ceftazidime, and ampicillin was also tested. […] The bacterial inocula in the assay plates were resuscitated from TSA and diluted in CAMHB, while growth controls (GC wells) and sterile controls (SC wells) were set up in the assay plates. The minimum inhibitory concentration of each compound combination against different bacteria was observed and recorded after the assay plates were incubated in a common incubator at 35±2° C. for 16-20 h, and the results are shown in Tables 1-3.

[2] = system: Klebsiella pneumoniae XNWB 0001; assay: as above; details: ceftazidime 8 μg/mL fixed
Description: as §1

[3] = system: Klebsiella pneumoniae XNWB 0002; assay: as above; details: ceftazidime 8 μg/mL fixed
Description: as §1

[4] = system: Klebsiella pneumoniae XNWB 0003; assay: as above; details: ceftazidime 8 μg/mL fixed
Description: as §1

[5] = system: Klebsiella pneumoniae XNWB 0004; assay: as above; details: ceftazidime 8 μg/mL fixed
Description: as §1

[6] = system: Klebsiella pneumoniae XNWB 0005; assay: as above; details: ceftazidime 8 μg/mL fixed
Description: as §1

[7] = system: Klebsiella pneumoniae XNWB 0006; assay: as above; details: ceftazidime 8 μg/mL fixed
Description: as §1

[8] = system: Pseudomonas aeruginosa XNWB 0008; assay: as above; details: ceftazidime 8 μg/mL fixed
Description: as §1

[9] = system: Acinetobacter baumannii XNWB 0007; assay: MIC assay of test compounds combined with imipenem (4 μg/mL); details: imipenem 4 μg/mL fixed
Description: as §1

[10] = system: Klebsiella pneumoniae XNWB 0001; assay: as above; details: imipenem 4 μg/mL fixed
Description: as §1

[11] = system: Klebsiella pneumoniae XNWB 0002; assay: as above; details: imipenem 4 μg/mL fixed
Description: as §1

[12] = system: Klebsiella pneumoniae XNWB 0003; assay: as above; details: imipenem 4 μg/mL fixed
Description: as §1

[13] = system: Klebsiella pneumoniae XNWB 0004; assay: as above; details: imipenem 4 μg/mL fixed
Description: as §1

[14] = system: Klebsiella pneumoniae XNWB 0005; assay: as above; details: imipenem 4 μg/mL fixed
Description: as §1

[15] = system: Klebsiella pneumoniae XNWB 0006; assay: as above; details: imipenem 4 μg/mL fixed
Description: as §1

[16] = system: Pseudomonas aeruginosa XNWB 0008; assay: as above; details: imipenem 4 μg/mL fixed
Description: as §1

Structure (SMILES) | The minimum concentration of test compounds combined with ceftazidime (8 μg/mL) for bacteriostasis [1] | The minimum concentration of test compounds combined with ceftazidime (8 μg/mL) for bacteriostasis [2] | The minimum concentration of test compounds combined with ceftazidime (8 μg/mL) for bacteriostasis [3] | The minimum concentration of test compounds combined with ceftazidime (8 μg/mL) for bacteriostasis [4] | The minimum concentration of test compounds combined with ceftazidime (8 μg/mL) for bacteriostasis [5] | The minimum concentration of test compounds combined with ceftazidime (8 μg/mL) for bacteriostasis [6] | The minimum concentration of test compounds combined with ceftazidime (8 μg/mL) for bacteriostasis [7] | The minimum concentration of test compounds combined with ceftazidime (8 μg/mL) for bacteriostasis [8] | The minimum concentration of test compounds combined with imipenem (4 μg/mL) for bacteriostasis [9] | The minimum concentration of test compounds combined with imipenem (4 μg/mL) for bacteriostasis [10] | The minimum concentration of test compounds combined with imipenem (4 μg/mL) for bacteriostasis [11] | The minimum concentration of test compounds combined with imipenem (4 μg/mL) for bacteriostasis [12] | The minimum concentration of test compounds combined with imipenem (4 μg/mL) for bacteriostasis [13] | The minimum concentration of test compounds combined with imipenem (4 μg/mL) for bacteriostasis [14] | The minimum concentration of test compounds combined with imipenem (4 μg/mL) for bacteriostasis [15] | The minimum concentration of test compounds combined with imipenem (4 μg/mL) for bacteriostasis [16]
CN(CCc1cc([C@@H]2CC3(CC3)[C@@H]3CN2C(=O)N3OS(=O)(=O)O)no1)C(=N)N [Example 37, (1R,4S)-4-(5-(2-(1-methylguanidino)ethyl)isoxazol-3-yl)-6-oxo-5,7-diazaspiro[bicycle [3.2.1]octane-2,1′-cyclopropan]-7-yl sulfate] | C (C: 16-128 μg/mL) | A (A: <8 μg/mL) | A (A: <8 μg/mL) | B (B: 8-16 μg/mL) | B (B: 8-16 μg/mL) | A (A: <8 μg/mL) | A (A: <8 μg/mL) | C (C: 16-128 μg/mL) | C (C: 16-128 μg/mL) | A (A: <8 μg/mL) | A (A: <8 μg/mL) | A (A: <8 μg/mL) | A (A: <8 μg/mL) | A (A: <8 μg/mL) | A (A: <8 μg/mL) | B (B: 8-16 μg/mL)
N=C(N)NCCc1cc([C@@H]2CC3(CC3)[C@@H]3CN2C(=O)N3OS(=O)(=O)O)no1 [Example 36, (1R,4S)-4-(5-(2-guanidinoethyl)isoxazol-3-yl)-6-oxo-5,7-diazaspiro[bicyclo[3.2.1]octane-2,1′-cyclopropan]-7-yl sulfate] | C (C: 16-128 μg/mL) | A (A: <8 μg/mL) | A (A: <8 μg/mL) | A (A: <8 μg/mL) | B (B: 8-16 μg/mL) | A (A: <8 μg/mL) | A (A: <8 μg/mL) | B (B: 8-16 μg/mL) | C (C: 16-128 μg/mL) | A (A: <8 μg/mL) | A (A: <8 μg/mL) | A (A: <8 μg/mL) | A (A: <8 μg/mL) | A (A: <8 μg/mL) | A (A: <8 μg/mL) | A (A: <8 μg/mL)
N[C@H]1C[C@H](c2nnc([C@@H]3CC4(CC4)[C@@H]4CN3C(=O)N4OS(=O)(=O)O)o2)C1 [Example 16] | C (C: 16-128 μg/mL) | A (A: <8 μg/mL) | A (A: <8 μg/mL) | A (A: <8 μg/mL) | B (B: 8-16 μg/mL) | A (A: <8 μg/mL) | A (A: <8 μg/mL) | B (B: 8-16 μg/mL) | B (B: 8-16 μg/mL) | A (A: <8 μg/mL) | A (A: <8 μg/mL) | A (A: <8 μg/mL) | A (A: <8 μg/mL) | A (A: <8 μg/mL) | A (A: <8 μg/mL) | A (A: <8 μg/mL)
CNC1(Cc2nnc([C@@H]3CC4(CC4)[C@@H]4CN3C(=O)N4OS(=O)(=O)O)o2)CC1 [Example 22, (1R,4S)-4-(5-((1-(methylamino)cyclopropyl)methyl)-1,3,4-oxadiazol-2-yl)-6-oxo-5,7-diazaspiro[bicyclo[3.2.1]octane-2,1′-cyclopropan]-7-yl sulfate] | C (C: 16-128 μg/mL) | B (B: 8-16 μg/mL) | A (A: <8 μg/mL) | B (B: 8-16 μg/mL) | C (C: 16-128 μg/mL) | B (B: 8-16 μg/mL) | A (A: <8 μg/mL) | C (C: 16-128 μg/mL) | C (C: 16-128 μg/mL) | A (A: <8 μg/mL) | A (A: <8 μg/mL) | A (A: <8 μg/mL) | A (A: <8 μg/mL) | A (A: <8 μg/mL) | A (A: <8 μg/mL) | C (C: 16-128 μg/mL)
